Measured values as given in PubChem BioAssay AID179 (DTP/NCI, 2004).
Values joined by “and” are separate entries in the source; they are usually repeats but may differ in a detail not shown here. Identical values can stand only once. Active and inactive are the calls of the source.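 Rule for the calls: active = compounds giving half or more protection of infected cells from virus-caused growth loss, again on retest; inactive = the rest.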

System: CEM cells HIV-1 protection, formazan growth assay
Test: NCI AIDS Antiviral Assay
Conditions: for IC50: measured here: growth of uninfected CEM cells
Method in brief: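 Steps: treat uninfected and HIV-1-infected human CEM cells at five drug levels; quantify growth by soluble formazan; retest any compound reaching 50% protection; classify actives from the retest.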

Row | Compound | outcome | EC50 [µM] | IC50
1 | O=C(COC(=O)c1cccc2c(=O)c3ccccc3[nH]c12)Nc1ccc(Cl)cc1 | inactive | – | –
2 | S=c1[nH]nc2scnn12 | – | > 200 | > 200 µM
3 | C[C@H](CCc1nc(C#N)c(N)o1)[C@H]1CC[C@H]2[C@@H]3[C@@H](O)CC4C[C@@H](O)CC[C@]4(C)[C@H]3C[C@@H](O)[C@]12C (stereo not given in full) | – | > 200 | 16.6 µM
4 | COC(=O)CCCC=C(c1cc(Br)c(OC)c(C(=O)OC)c1)c1cc(Br)c(OC)c(C(=O)OC)c1 | – | 1.82 | 42.7 µM
5 | CCOC(=O)N1CCC(=O)C[C@@H]1C/C=C/P1(=O)O[C@H](c2ccccc2)C(C)N1C(C)C (stereo not given in full) | inactive | – | –
6 | CC[C@H](OCc1ccccc1)/C(C)=C/CC(C)/C=C(/C[C@]1(C)OC(=O)N2CCC[C@H]21)[Si](C)(C)C (stereo not given in full) | – | > 10.7 | > 10.7 µM
7 | NS(=O)(=O)C1CCCCC1C(=O)NNC(=O)C(=O)Nc1nc(=S)[nH][nH]1 (stereo not given) | – | > 646 | > 646 µM
8 | N=[N+]=CC(=O)OCC(N)C(=O)O (stereo not given) | – | > 200 | 2.88 µM
9 | COC1=C(OC)CCC(/C(C#N)=C/c2ccc(OC)c(OC)c2)=C1 | – | > 41.7 | 21.4 µM
10 | O=C(O)C1Cc2c([nH]c3ccccc23)C(C2CCNC2=S)N1 (stereo not given) | inactive | – | –
11 | COC(=O)/C=c1\s/c(=C\C(=O)OC)c2ccccc12 | inactive | – | –
12 | COc1cc2c(cc1OC)C1CC3(CC4c5cc(OC)c(OC)cc5CCN4CC3CO)C(CO)CN1CC2 (stereo not given) | inactive | – | –
13 | S=c1sc2ccccc2n1CCSSCCn1c(=S)sc2ccccc21 | – | > 200 | 191 µM
14 | CC1(CO)C(=O)OC12CCCCC2 (stereo not given) | – | > 1350 | > 1350 µM
15 | O=c1c2cc([N+](=O)[O-])cnc2sn1-c1ccc(Oc2ccccc2)cc1 | – | 37.2 | 43.7 µM
16 | Cc1nc2c(Br)cc(Br)cc2c(=O)n1-c1ccccc1NC1OC(CO)C(O)C(O)C1O (stereo not given) | – | > 200 | > 200 µM and 105 µM
17 | O=C1c2ccccc2C(=O)c2c1nc1sccn21 | – | > 200 | 32.4 µM
18 | NC(=O)C(Cc1ccccc1)NC(=O)c1ccccc1SC(=O)CCCC[n+]1ccccc1 (stereo not given) | – | > 200 | 4.47 µM
19 | CC(C)(C)OC(=O)C1/C(=C/CO)CN1C(=O)OC(C)(C)C (stereo not given) | – | > 200 | 43.7 µM
20 | O=[N+]([O-])c1cccc2nccc(NCCCO)c12 | – | > 200 | 6.92 µM
21 | CC(C)=CC1c2[nH]c3ccccc3c2CC(C(=O)O)N1C(=O)OC(C)(C)C(Cl)(Cl)Cl (stereo not given) | inactive | – | –

Row | Compound | outcome | EC50 [µM] | IC50
22 | COc1ccc(-c2cc(=O)c3c(O)cc(O)cc3o2)cc1OC | – | > 70.8 | > 70.8 µM
23 | COC(=O)NC(Nc1ccc(Cl)cc1Cl)(C(F)(F)F)C(F)(F)F | inactive | – | –
24 | CCS1=C2C(=O)CC(C)(C)CC2=Nc2ccccc21 (stereo not given) | – | > 200 | > 200 µM
25 | CCC[CH2][Sn]([Cl])([CH2]CCC)[S]C(=S)NCCNC(=S)[S][Sn]([Cl])([CH2]CCC)[CH2]CCC | – | > 2 | 0.102 µM
26 | Cc1ccc(NC(=O)C(=O)C(C(=O)c2ccc3ccccc3c2)C2OC(=O)c3ccccc32)cc1C (stereo not given) | – | > 53.7 | 25.7 µM
27 | CCC[CH2][Sn]1([CH2]CCC)[O]C(=O)c2ccc(N)cc2[O]1 | inactive | – | –
28 | Oc1ccc2ccccc2c1OCc1nnc(CCCCCCCCc2nnc(COc3c(O)ccc4ccccc34)n2Nc2ccccc2)n1Nc1ccccc1 | – | > 2 | > 2 µM
29 | CSCCOC(=O)c1cc(NC(=S)c2ccoc2C)ccc1Cl | – | 0.0182 | 19.5 µM
30 | [N-]=[N+]=C1C(=O)C2CC3CC(C2)CC1C3 | – | > 191 | > 191 µM
31 | O=c1[nH]c2cc(C(F)(F)F)ccc2nc1CBr | – | > 200 | 6.61 µM
32 | Cc1c(C)c2cc3c(cc2oc1=O)OCC3 | – | > 83.2 | 55 µM
33 | C=C(C)CCC1CC=[N+]([O-])OC1C(C)(C)C (stereo not given) | – | > 200 | 28.8 µM
34 | COc1cc2c(cc1OC)CN1CCc3ccccc3CC1C2 (stereo not given) | – | > 200 | 14.8 µM
35 | COc1ccc(-c2cc(=O)c3c(O)cc(O)cc3o2)cc1 | – | > 105 | > 105 µM
36 | O=C1CCCCC(=O)Nc2ccccc2-c2ccccc2N1 | inactive | – | –
37 | O=S1OCCO1 | – | > 2290 | > 2290 µM
38 | Cn1c(=O)c2nc3sc4ccccc4c(=N)n3c2n(C)c1=O | – | > 41.7 | > 41.7 µM
39 | COC(=O)CCCC=C(c1cc(F)c(OC)c(C(=O)OC)c1)c1cc(F)c(OC)c(C(=O)OC)c1 | – | 1.7 | 64.6 µM
40 | CCCCC(/C=C\COC1CCCCO1)=C/C(=O)OCC (stereo not given) | – | > 126 | 77.6 µM
41 | CCN(CC)C(=O)COc1cc2c(O)c3c(O)c(C)c4c(c13)C(=O)C(C)(O/C=C/C(OC)C(C)C(O)C(C)C(O)C(C)C(O)C(C)/C=C/C=C(\C)C(=O)N2)O4 (stereo not given) | – | > 200 | 29.5 µM
42 | O=c1[nH]c2cn(-c3ccccc3)nc2c(=O)n1O | – | > 200 | 3.55 µM

Row | Compound | outcome | EC50 [µM] | IC50
43 | O=C1CCCCC/C1=C\c1ccc(F)cc1 | – | > 200 | 61.7 µM
44 | C=C(COC(=O)C(C)C)[C@H]1Oc2ccc(C(C)=O)cc2[C@@H]1OC(=O)C(C)C | – | > 200 | > 200 µM
45 | N#Cc1cc2cc3c4c(c2oc1=O)CCCN4CCC3 | – | > 1.95 | > 1.95 µM
46 | [N-]=[N+]=Nc1c([N+](=O)[O-])c(=O)n(-c2ccccc2)c2ccccc12 | – | > 200 | 13.5 µM
47 | COc1cc2c(cc1O)CC[n+]1cc3c(OC)c(OC)ccc3cc1-2 | – | > 182 | > 182 µM
48 | N=C(c1ccc(-c2cn3cc(C(=N)N4CCCC4)ccc3n2)cc1)N1CCCC1 | – | 148 | > 200 µM
49 | CC(=O)CC1(OC(=O)C2C(C=C(C)C)C2(C)C)C(=O)Nc2ccccc21 (stereo not given) | – | > 200 | 105 µM
50 | CCOC(=O)c1sc(N/N=C2\NC(=O)/C(=C/c3ccc([N+](=O)[O-])cc3)S2)nc1C | – | > 200 | 135 µM
51 | CC(O)c1c2c(cc3c1CC1(C3)Cc3cc4c(c(C(C)O)c3C1)CCC4)CCC2 (stereo not given) | – | > 200 | 9.55 µM
52 | CC1CCOC(=O)/C=C/C=C/C(=O)OC2CC3OC4C5OC5(C)C(O)CC4(COC(=O)C1O)C2(C)C31CO1 (stereo not given) | – | > 2 | 0.0468 µM
53 | COc1cccc(NC(=O)/C(CS(=O)(=O)CCC(C(C)=O)C(C)=O)=N\NC(C)(C)C)c1 | – | 25.7 | 550 µM
54 | C=C[C@@H](OCOCC[Si](C)(C)C)[C@@H](CC)OC(CCCOC(=O)C(C)(C)C)OC (stereo not given in full) | – | > 200 | > 200 µM
55 | CC(=O)O[C@H]1[C@@H]2[C@@H](C[C@H](C)[C@H]3C=CC(=O)[C@@]31C)OC(=O)[C@@H]2C | – | > 200 | 34.7 µM
56 | CC1(C)/C(=N\O)C2(OS(=O)(=O)C(F)(F)F)CCC1C2 (stereo not given) | – | > 200 | > 200 µM
57 | COC1OC(COC(=O)c2ccccc2)CC1F (stereo not given) | – | > 195 | 21.4 µM
58 | CCOc1ccc(-n2c(=O)c3nn4c(=O)n(-c5ccc(OCC)cc5)c(=O)c4nn3c2=O)cc1 | – | > 200 | > 200 µM
59 | COC(=O)c1ccccc1C1CN=NC12Cc1c(C)cccc1C2=O (stereo not given) | – | > 200 | 151 µM
60 | CC(=O)OC1C(O)C(C)OC(OC2C(OC(=O)C3CCC4C(C3)OC3(CC(OC(=O)/C=C/c5ccccc5)C(C)CO3)C43CO3)OC(C)C(O)C2OC(C)=O)C1O (stereo not given) | – | > 1.55 | 0.0012 µM
61 | NC(CSS(=O)(=O)O)=NCC1CCCCC1 | – | > 200 | 58.9 µM
62 | Cc1cc(=O)c2c3c(ccc2[nH]1)Oc1ccccc1O3 | – | > 7.59 | > 7.59 µM
63 | C=CCNC(=S)/N=C/c1c(O)[nH]c(=O)[nH]c1=O | inactive | – | –

Row | Compound | outcome | EC50 [µM] | IC50
64 | O=C(/C=C/c1ccc2c(c1)OCO2)NCc1ccco1 | – | > 200 | 117 µM
65 | OCC12C=CC(C1)c1ccccc12 (stereo not given) | – | > 251 | > 251 µM
66 | CCOC1=C2C(C)(CCC3[C@@]4(C)C=CC(=O)C(C)(C)C4CC(O)[C@@]23C)C(c2ccoc2)C1=O (stereo not given in full) | – | > 79.4 | 17.8 µM
67 | Cc1nnc2nc(N)[nH]n2c1=O | – | > 200 | > 200 µM
68 | COC(=O)C(=O)C(C(=O)C=C(C)C)C(=O)C(=O)Nc1cccc(C(C)=O)c1 (stereo not given) | – | > 251 | –
69 | O=C1OCCCCOC(=O)c2ccccc2SSc2ccccc21 | – | > 200 | > 200 µM
70 | O=C1CCC2(c3ccc(Cl)cc3)Nc3ncccc3N12 (stereo not given) | – | > 126 | 97.7 µM
71 | Cc1ccc(S(=O)(=O)N2CCc3cc(O)c([N+](=O)[O-])cc32)cc1 | – | > 200 | > 200 µM
72 | O=S(=O)(NC1OCCCC1I)c1ccccc1 (stereo not given) | – | > 200 | > 200 µM
73 | O=c1[nH]c2nc(SCc3ccccc3)n(Cc3ccccc3)c2c(=O)n1OS(=O)(=O)c1ccccc1 | – | > 200 | 75.9 µM
74 | CC1CC/C(=C\c2ccc(F)cc2)C2=C1C(c1ccc(F)cc1)n1c(s/c(=C\c3ccc(Cl)cc3)c1=O)=N2 (stereo not given) | inactive | – | –
75 | CC(NC(=O)/C(=C/c1ccccc1O)NC(=O)c1ccccc1)C(=O)O (stereo not given) | – | > 200 | > 200 µM
76 | CC(C)(c1ccccc1)c1ccc(Oc2ccc3c(c2)-c2nc-3nc3[nH]c(nc4nc(nc5[nH]c(n2)c2ccc(Oc6ccc(C(C)(C)c7ccccc7)cc6)cc52)-c2cc(Oc5ccc(C(C)(C)c6ccccc6)cc5)ccc2-4)c2ccc(Oc4ccc(C(C)(C)c5ccccc5)cc4)cc32)cc1 | – | > 2.63 | > 2.63 µM
77 | CCCO/S(=N\S(=O)(=O)c1ccccc1)c1ccccc1[N+](=O)[O-] (stereo not given) | – | > 676 | > 676 µM
78 | COC(=O)[C@H]1C[C@H]1NC(=O)C(CC(=O)OCc1ccccc1)NC(=O)OCc1ccccc1 (stereo not given in full) | – | > 200 | 79.4 µM
79 | S=c1[nH]c2ccccc2c(=S)n1CN1CCCCC1 | – | > 200 | 110 µM
80 | Nc1ccc(F)cc1-c1nc2ccc(F)cc2c2nc3ccccc3n12 | inactive | – | –
81 | Cc1cn(C2CCC(/C=N\O)O2)c(=O)[nH]c1=O (stereo not given) | – | > 200 | > 200 µM
82 | CC(=O)OC1CC2C(CCC3(C)C(OC(C)=O)CCC23)c2c(OS(=O)(=O)c3ccccc3)ccc(C)c21 (stereo not given) | – | > 100 | > 100 µM
83 | C=C1[C@H]2CC[C@H]3C45CO[C@@H](CC4=O)C(C)(C)C5=C(O)C(=O)C3(C2)[C@@H]1OC(C)=O | – | > 18.6 | > 18.6 µM
84 | COc1cc2c(c(OC)c1OC)C(=O)[C@H]1OC(=O)N[C@@H]21 | – | > 200 | > 200 µM
